Data on one compound can be found in US20240197767A1, “COMBINATION OF ZIDOVUDINE WITH A TETRACYCLINE ANTIBIOTIC” (Helperby Therapeutics Limited, priority 2019, published 2024).

What all share (experiment): Chequerboard MIC/synergy testing of zidovudine and doxycycline, log phase bacteria
What all share (format): cell-based

Experiment [1] has as its system NCTC13443 NDM-1 Klebsiella pneumoniae. Conditions: strain NCTC13443, doxycycline alone. How it is done:
(§1) Synergy in the context of antimicrobial drugs is measured in a number of ways that conform to the generally accepted opinion that “synergy is an effect greater than additive”. One of the ways to assess whether synergy has been observed is to use the “chequerboard” technique. This is a well-accepted method that leads to the generation of a value called the fractional inhibitory concentration index (FICI). Orhan et al., J. Clin. Microbiol. 2005, 43(1):140 describes the chequerboard method and analysis in the paragraph bridging pages 140-141, and explains that the FICI value is a ratio of the sum of the MIC (Minimum Inhibitory Concentration) level of each individual component alone and in the mixture. The combination is considered synergistic when the ΣFIC is ≤0.5, indifferent when the ΣFIC is >0.5 but <4.0, and antagonistic when the ΣFIC is >4.0.
(§2) The chequerboard method used in Example 1 followed the protocols detailed in Antimicrob Chemo (2013) 68, 374-384. Zidovudine and doxycycline were obtained from commercially available sources. The bacteria used were BAA2469 NDM-1 Escherichia coli, BAA2470 NDM-1 Klebsiella pneumoniae, BAA2471 NDM-1 Escherichia coli, BAA2472 NDM-1 Klebsiella pneumoniae, and NCTC13443 NDM-1 Klebsiella pneumoniae. All strains were obtained from a commercial source and log phase growth of the bacteria was carried out using methods known in the art.
(§3) The effects of the combination of the present invention were examined by calculating the fractional inhibitory concentration index (FICI) of each combination, as follows:
(§4) (MIC of drug A,tested in combination)/(MIC of drug A,tested alone)+(MIC of drug B,tested in combination)/(MIC of drug B,tested alone).
(§5) The interaction of the combination was defined as showing synergy if the FICI was […], no interaction if the FICI was >0.5 but <4.0 and antagonism if the FICI was >4.0.

Experiment [2] concerns BAA2471 NDM-1 Escherichia coli. Conditions: BAA2471, read-out: MIC Doxycycline. How it is done:
as §1, §2, §3, §4, §5

Experiment [3] relates to BAA2469 NDM-1 Escherichia coli. Conditions: strain BAA2469, doxycycline alone. How it is done: as §1, §2, §3, §4, §5
Experiment [4] has as its system BAA2472 NDM-1 Klebsiella pneumoniae. Conditions: BAA2472, read-out: MIC Doxycycline. Here is the method:
as §1, §2, §3, §4, §5

The subject of experiment [5] is BAA2470 NDM-1 Klebsiella pneumoniae. Conditions: strain BAA2470, doxycycline alone. How it is done: as §1, §2, §3, §4, §5

For `C[C@H]1c2cccc(O)c2C(=O)C2=C(O)[C@]3(O)C(=O)C(C(N)=O)=C(O)[C@@H](N(C)C)[C@@H]3[C@@H](O)[C@@H]21` [Doxycycline, (4S,4aR,5S,5aR,6R,12aR)-4-(dimethylamino)-1,5,10,11,12a-pentahydroxy-6-methyl-3,12-dioxo-4a,5,5a,6-tetrahydro-4H-tetracene-2-carboxamide], the MIC in experiment [1] was 32 µg/mL; in experiment [2] it was 32 µg/mL; in experiment [3], 64 µg/mL; in experiment [4], 16 µg/mL; in experiment [5], 64 µg/mL.

Usually MIC stands for the least concentration at which growth counts as inhibited.
